In US9840501B2, “Morpholin-pyridine derivatives” (Hoffmann-La Roche Inc., priority 2014, dated 2017) one finds Ki data, which are given here for 7 compounds.

Experiment [1] addresses mouse TAAR1 (Mus musculus (Mouse), UniProt Q923Y8). In words: Radioligand binding assay on mouse TAAR1. The settings on record: mouse TAAR1, membranes of stably transfected HEK-293 cells; first value of the pair; read-out: Ki (μM) mouse/rat: mouse. A digest of the protocol: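 Membranes from HEK293 cells stably expressing mouse TAAR1, in 20 mM HEPES-NaOH pH 7.4 with 0.1 mM EDTA, incubated 1 h at 4 °C with ^3[H]-(S)-4-[(ethyl-phenyl-amino)-methyl]-4,5-dihydro-oxazol-2-ylamine and compounds (10 pM to 10 μM, duplicates). Nonspecific binding with 10 μM unlabeled ligand; bound radioactivity counted after filtration.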

For experiment [2], the target named is rat TAAR1 (Rattus norvegicus (Rat), UniProt Q923Y9). In words: Radioligand binding assay on rat TAAR1. The settings on record: rat TAAR1, membranes of stably transfected HEK-293 cells; second value of the pair; read-out: Ki (μM) mouse/rat: rat. A digest of the protocol: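 Membranes from HEK293 cells stably expressing rat TAAR1, in 20 mM HEPES-NaOH pH 7.4; displacement of 3[H]-(S)-4-[(ethyl-phenyl-amino)-methyl]-4,5-dihydro-oxazol-2-ylamine, nonspecific binding with 10 μM unlabeled ligand. Compounds 10 pM to 10 μM in duplicate, 1 h at 4 °C, filtration and scintillation counting.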
Sequence of rat TAAR1 (Q923Y9 whole entry): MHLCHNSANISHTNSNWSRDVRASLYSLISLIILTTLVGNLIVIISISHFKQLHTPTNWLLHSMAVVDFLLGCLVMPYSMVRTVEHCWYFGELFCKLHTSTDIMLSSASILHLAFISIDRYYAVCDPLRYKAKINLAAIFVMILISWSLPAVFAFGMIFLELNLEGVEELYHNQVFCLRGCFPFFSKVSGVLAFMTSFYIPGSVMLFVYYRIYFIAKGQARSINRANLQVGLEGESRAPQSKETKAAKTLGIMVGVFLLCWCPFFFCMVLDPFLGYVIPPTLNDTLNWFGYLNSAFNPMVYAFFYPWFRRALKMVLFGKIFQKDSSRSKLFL

Sequence of mouse TAAR1 (Q923Y8 whole entry): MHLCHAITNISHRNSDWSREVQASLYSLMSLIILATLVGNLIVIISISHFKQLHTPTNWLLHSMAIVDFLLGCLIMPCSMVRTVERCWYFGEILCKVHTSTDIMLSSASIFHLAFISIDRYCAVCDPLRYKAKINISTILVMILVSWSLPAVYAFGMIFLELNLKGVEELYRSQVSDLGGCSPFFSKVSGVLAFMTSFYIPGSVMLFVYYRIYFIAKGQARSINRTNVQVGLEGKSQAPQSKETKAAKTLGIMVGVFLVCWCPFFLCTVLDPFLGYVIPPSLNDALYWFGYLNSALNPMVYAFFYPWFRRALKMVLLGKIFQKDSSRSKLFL

Turning to `O=C(Nc1ccc(C(F)(F)F)cc1)Nc1ccc(C2CNCCO2)nc1` (racemic) [Example 10, (RS)-1-(6-Morpholin-2-yl-3-pyridyl)-3-[4-(trifluoromethyl)phenyl]urea], the Ki in experiment [1] was 0.0042 µM; in experiment [2], 0.0029 µM.
In the same order, the values of `CCc1n[nH]c(C(=O)Nc2ccc([C@H]3CNCCO3)nc2)c1F` [Example 83, 3-Ethyl-4-fluoro-N-[6-[(2R)-morpholin-2-yl]-3-pyridyl]-1H-pyrazole-5-carboxamide] are 0.0083 µM and 0.757 µM.
Turning to `FC(F)(F)c1ccnc(Nc2ccc([C@H]3CNCCO3)nc2)c1` [Example 28, 6-[(2R)-Morpholin-2-yl]-N-[4-(trifluoromethyl)-2-pyridyl]pyridin-3-amine], the figures for the Ki in experiment [1] and in experiment [2] were 0.11 µM and 0.606 µM, respectively.
Take `CC(C)c1n[nH]c(C(=O)Nc2ccc([C@H]3CNCCO3)nc2)c1Cl` [Example 115, 4-Chloro-3-isopropyl-N-[6-[(2R)-morpholin-2-yl]-3-pyridyl]-1H-pyrazole-5-carboxamide]: the Ki in experiment [1] came out at 0.0087 µM; in experiment [2] it was 0.009 µM.
Take `O=C(Nc1cccc(Cl)c1)Nc1cnc(C2CNCCO2)c(Cl)c1` (racemic) [Example 109, (RS)-1-(5-Chloro-6-morpholin-2-yl-3-pyridyl)-3-(3-chlorophenyl)urea]: the Ki stood at 0.0543 µM in experiment [1] and 0.019 µM in experiment [2].
Regarding `CCCc1c(Cl)c(C(=O)Nc2ccc([C@H]3CNCCO3)nc2)nn1C` [Example 48, 4-Chloro-1-methyl-N-[6-[(2R)-morpholin-2-yl]-3-pyridyl]-5-propyl-pyrazole-3-carboxamide], the Ki in experiment [1] came out at 0.0199 µM; in experiment [2] it was 1.37 µM.
As to `CCOc1ccc(C(=O)Nc2ccc(C3CNCCO3)nc2)cc1` (racemic) [Example 13, (RS)-4-Ethoxy-N-(6-morpholin-2-yl-3-pyridyl)benzamide], the Ki in experiment [1] was found to be 0.0124 µM; in experiment [2] it was 0.328 µM.
